Data as given in US7629364B2, “Compounds that abrogate DNA-damage-induced cell cycle G2 checkpoint and/or augment anti-cancer activity of DNA-damaging treatments” (Canbas Co., Ltd., priority 2002, dated 2009).
“Also recorded” adds a separate entry of the source. Read-outs that look alike come from different tables or passages of the source.

Tests used:
Activated normal T cells [1] = test: M phase checkpoint in colchicine-treated activated normal T cells (flow cytometry); type: cell-based, human; conditions: FIG. 10c
Procedure: (§1) Cell culture. A human T-cell leukemia-derived cell line, Jurkat, was cultured in RPMI 1640 media (Sigma) supplemented with 10% fetal calf serum (IBL: Immuno-Biological Laboratories, Gunma, Japan) at 37° C./5% CO2. A human colon cancer-derived cell line, HCT116, was cultured in McCoy's 5A Medium Modified (Gibco BRL) and supplemented with 10% fetal calf serum at 37° C./5% CO2. Normal human peripheral blood lymphocytes were separated by Ficoll-Paque® (Pharmacia) and cultured in the presence of 0.1 μg/ml PHA and 1 μg/ml IL-2.
(§2) Cell-cycle analysis. […] Briefly, two million cells were resuspended and incubated in 300 μl Krishan's solution (0.1% Sodium citrate, 50 μg/ml PI, 20 μg/ml RNase A and 0.5% NP-40) for 1 hr at 4° C. and analyzed by flow cytometry using a FACScan™ flow cytometer (Beckton Dickinson, Mountain View, Calif.) with the CELLQuest™ program (Beckton Dickinson).
(§3) Activated normal T cells and leukemic T cells (Jurkat cells) were treated with agents to induce accumulation of cells at G2 or M phase, and the effect of CBDC402 on progression of cells through cell cycle checkpoints was measured. After treatments, cells were harvested, DNA was stained, and the cell cycle stage for each cell was determined by flow cytometry as described above. […]

Jurkat cells [2] = test: G2 checkpoint abrogation in bleomycin-treated Jurkat cells (flow cytometry of DNA content); type: cell-based, human; conditions: for abrogation of bleomycin-induced accumulation of G2/M cells (% G2/M): bleomycin 40 μg/ml plus compound 0.2-50 μg/ml
Procedure: as §1, §2
DNA of treated Jurkat cells was stained with propidium iodine, and the cell cycle status of each cell was assessed by flow cytometry.
CBDC compounds 004, 402, 403, 404, 405, 406, 407, 408, 409, 410, and 411 were tested. Cells were harvested, DNA was stained with propidium iodine, and the percentage of cells in G2/M phase (% G2/M) was determined by flow cytometry.
Activated normal T cells and leukemic T cells (Jurkat cells) were treated with agents to induce accumulation of cells at G2 or M phase, and the effect of CBDC402 on progression of cells through cell cycle checkpoints was measured. After treatments, cells were harvested, DNA was stained, and the cell cycle stage for each cell was determined by flow cytometry as described above. […] In another experiment, activated normal T cells received no treatment (control) or were treated with colchicine or a combination of […] and colchicine.

MK-45 cells = test: Colony formation analysis of MK-45 cells; type: cell-based, human; conditions: 14 days culture; for colony formation, combination with CPT-11: 10 μM CBDC compound plus 10 μg/ml CPT-11, 3 hours; for colony formation, CBDC compound alone: 10 μM, 3-hour treatment
Procedure: MK-45 cells from a human gastric cancer derived cell line, were seeded in 6-well plates at 1000 cells/well. After the overnight culture, the cells were treated 10 μM of various CBDC compounds, 10 μg/ml CPT-11, or a combination of CBDC compounds and CPT-11 for three (3) hours. The CBDC compounds tested were: CBDC402, CBDC412, CBDC413, and CBDC418. The culture medium was changed and cells were cultured for 14 days, after which the colonies were fixed with methanol and stained with 0.1% crystal violet.

Activated normal T cells [3] = test: G2 checkpoint in bleomycin-treated activated normal T cells (flow cytometry); type: cell-based, human
Procedure: as §1, §2, §3

[4] = tested on: HCT-116 human colon carcinoma cells; test: Xenograft tumor growth in SCID mice; type: in vivo; conditions: HCT-116 xenograft, intraperitoneal
Procedure: Treatment was initiated when the primary tumors reached the size of 0.1 cm^3 (7 or 8 mm, designated as Day 1).
Anti-cancer agent CPT-11 (CAMPTOSAR®, Irinotecan, a topoisomerase inhibitor) and CBDC402 were administered by intraperitoneal injection in the following treatment regimens: […] at 20 mg/kg once a week; CBDC402 at 20 mg/kg twice a week; CBDC402 at 40 mg/kg twice a week; CBDC402 at 20 mg/kg twice and week plus CPT-11 at 20 mg/kg once a week; and CBDC402 at 40 mg/kg twice a week plus CPT-11 at 20 mg/kg once a week. DMSO was administered as a control treatment. Tumor sizes were measured using calipers three times a week, and the volume was calculated using the formula; […]=[width (mm)^2×length (mm)]/2. Mean tumor sizes for each treatment group (n=4) were plotted against the days of treatment.

Jurkat cells [5] = test: M phase checkpoint in colchicine-treated Jurkat cells (flow cytometry); type: cell-based, human; conditions: 24 hrs
Procedure: as §1, §2
Jurkat cells were treated with colchicine (5 ug/ml), and colchicine plus the compound CBDC402 in various concentrations (0.2, 0.39, 0.78, 1.56, 3.125, 6.25, 12.5, 25 and 50 ug/ml) for 24 hrs. DNA of treated Jurkat cells was stained with propidium iodine, and the cell cycle status of each cell was assessed by flow cytometry.

HCT116 cells = tested on: HCT116 cells
Procedure: The subG1 population was determined by staining HCT116 with Krishan's solution and analyzed by flow cytometer. The dead cells were identified on the basis of DNA content, and the percentage of cells in sub G1 (% subG1) was calculated.

Compound: Cc1ccc(OC(=O)c2ccc(Br)cc2)cc1 [CBDC402, 4-Bromo-benzoic acid p-tolyl ester]
- effect on colchicine-induced increase of cells at M phase (Activated normal T cells [1]; combination with colchicine): did not affect the colchicine-induced increase of activated normal T cells at M phase
- abrogation of bleomycin-induced accumulation of G2/M cells (% G2/M) (Jurkat cells [2]; Jurkat cells, 24 hrs): abolished the bleomycin-induced accumulation of G2/M cells in a dose-dependent manner; also recorded: abrogated the G2 cell cycle checkpoint in bleomycin-treated Jurkat cells in a dose-dependent manner
- relative G2 checkpoint abrogating activity among CBDC compounds tested (dose-response curve) (Jurkat cells [2]; Jurkat cells, bleomycin 40 ug/ml, 24 hrs, FIG. 3): showed the highest activity
- effect on bleomycin-induced increase of cells at G2 phase (Jurkat cells [2]; leukemic T cells (Jurkat cells), combination of bleomycin and CBDC402, FIG. 10b): abolished the large bleomycin-induced increase of leukemic T cells (Jurkat cells) at G2 phase
- colony formation, combination with CPT-11 (MK-45 cells): almost complete suppression of colony formation
- colony formation, CBDC compound alone (MK-45 cells): significant suppression of colony formation
- effect on bleomycin-induced increase of cells at G2 phase (Activated normal T cells [3]; combination of bleomycin and CBDC402, FIG. 10a): abolished the bleomycin-induced increase of activated normal T cells at G2 phase
- tumor growth, CBDC402 alone ([4]; 20 or 40 mg/kg twice a week (both concentrations)): gave a slight reduction in tumor growth
- tumor growth, combination with CPT-11 ([4]; CBDC402 20 or 40 mg/kg twice a week plus CPT-11 20 mg/kg once a week): significantly reduced or inhibited tumor growth
- abrogation of colchicine-induced G2/M accumulation (Jurkat cells [5]; colchicine 5 ug/ml plus compound 0.2-50 ug/ml): did not abrogate this G2/M accumulation at any CBDC402 concentration

Compound: Cc1ccc(OC(=O)c2cc(F)c(F)c(F)c2)cc1 [CBDC403, 3,4,5-Trifluoro-benzoic acid p-toly 1 ester]
- abrogation of bleomycin-induced accumulation of G2/M cells (% G2/M) (Jurkat cells [2]; Jurkat cells, 24 hrs): abrogated the G2 cell cycle checkpoint in bleomycin-treated Jurkat cells in a dose-dependent manner

Compound: CC.O=C(Oc1ccc(Br)cc1)c1ccc(F)cc1 [CBDC404, 4-Fluoro-benzoic acid 4-bromo-pheny 1 ester; compound with ethane]
- abrogation of bleomycin-induced accumulation of G2/M cells (% G2/M) (Jurkat cells [2]; Jurkat cells, 24 hrs): abrogated the G2 cell cycle checkpoint in bleomycin-treated Jurkat cells in a dose-dependent manner

Compound: CC.Cc1ccc(OC(=O)c2ccc(Cl)c(Cl)c2)cc1 [CBDC405, 3,4-Dichloro-benzoic acid p-tolyl ester; compound with ethane]
- abrogation of bleomycin-induced accumulation of G2/M cells (% G2/M) (Jurkat cells [2]; Jurkat cells, 24 hrs): abrogated the G2 cell cycle checkpoint in bleomycin-treated Jurkat cells in a dose-dependent manner

Compound: CC.Cc1ccc(OC(=O)c2ccc(Cl)cc2Cl)cc1 [CBDC406, 2,4-Dichloro-benzoic acid p-tolyl ester; compound with ethane]
- abrogation of bleomycin-induced accumulation of G2/M cells (% G2/M) (Jurkat cells [2]; Jurkat cells, 24 hrs): abrogated the G2 cell cycle checkpoint in bleomycin-treated Jurkat cells in a dose-dependent manner

Compound: CC.Cc1ccc(OC(=O)c2ccc(F)cc2)cc1 [CBDC407, 4-Fluoro-benzoic acid p-tolyl ester; compound with ethane]
- abrogation of bleomycin-induced accumulation of G2/M cells (% G2/M) (Jurkat cells [2]; Jurkat cells, 24 hrs): abrogated the G2 cell cycle checkpoint in bleomycin-treated Jurkat cells in a dose-dependent manner

Compound: CC.Cc1ccc(OC(=O)c2c(F)c(F)c(F)c(F)c2F)cc1 [CBDC408, 2,3,4,5,6-Pentafluoro-benzoic acid p-tolyl ester; compound with ethane]
- abrogation of bleomycin-induced accumulation of G2/M cells (% G2/M) (Jurkat cells [2]; Jurkat cells, 24 hrs): abrogated the G2 cell cycle checkpoint in bleomycin-treated Jurkat cells in a dose-dependent manner

Compound: CC.Cc1ccc(OC(=O)c2ccc(Cl)cc2)cc1C [CBDC409, 4-Chloro-benzoic acid 3,4-dimethyl-phenyl ester; compound with ethane]
- abrogation of bleomycin-induced accumulation of G2/M cells (% G2/M) (Jurkat cells [2]; Jurkat cells, 24 hrs): abrogated the G2 cell cycle checkpoint in bleomycin-treated Jurkat cells in a dose-dependent manner

Compound: CC.O=C(Oc1ccc(O)cc1)c1ccc(Cl)cc1 [CBDC410, 4-Chloro-benzoic acid 4-hydroxy-phenyl ester; compound with ethane]
- abrogation of bleomycin-induced accumulation of G2/M cells (% G2/M) (Jurkat cells [2]; Jurkat cells, 24 hrs): abrogated the G2 cell cycle checkpoint in bleomycin-treated Jurkat cells in a dose-dependent manner

Compound: CC.O=C(Oc1ccc(O)cc1)c1ccc(F)cc1 [CBDC411, 4-Fluoro-benzoic acid 4-hydroxy-phenyl ester; compound with ethane]
- abrogation of bleomycin-induced accumulation of G2/M cells (% G2/M) (Jurkat cells [2]; Jurkat cells, 24 hrs): abrogated the G2 cell cycle checkpoint in bleomycin-treated Jurkat cells in a dose-dependent manner

Compound: O=C(Oc1ccc(F)cc1)c1ccc(Br)cc1 [CBDC412, 4-Bromo-benzoic acid 4-fluoro-phenyl ester]
- colony formation, combination with CPT-11 (MK-45 cells): a slight suppression of colony formation above that seen with CPT-11 alone
- colony formation, CBDC compound alone (MK-45 cells): a slight suppression of colony formation

Compound: O=C(Oc1ccc(C(F)(F)F)cc1)c1ccc(Br)cc1 [CBDC413, 4-Bromo-benzoic acid 4-trifluoromethyl-phenyl ester]
- colony formation, CBDC compound alone (MK-45 cells): did not have an appreciable effect on colony formation

Compound: Cc1ccc(OC(=O)c2ccc(Br)cc2)cn1 [CBDC418, 4-Bromo-benzoic acid 6-methyl-pyridin-3-yl ester]
- colony formation, CBDC compound alone (MK-45 cells): did not have an appreciable effect on colony formation

Compound: CCc1c2c(nc3ccc(OC(=O)N4CCC(N5CCCCC5)CC4)cc13)-c1cc3c(c(=O)n1C2)COC(=O)[C@]3(O)CC [CPT-11, Irinotecan, reference compound]
- colony formation, CPT-11 alone (MK-45 cells; 10 μg/ml, 3 hours): significant suppression of colony formation
- tumor growth, CPT-11 alone ([4]; 20 mg/kg once a week): reduced tumor growth

Compound: COc1cccc2c1C(=O)c1c(O)c3c(c(O)c1C2=O)C[C@@](O)(C(=O)CO)C[C@@H]3O[C@H]1C[C@H](N)[C@H](O)[C@H](C)O1 [adriamycine, adriamycin]
- cytotoxic effect (% subG1) of anti-cancer agent alone (HCT116 cells): had a cytotoxic effect on HCT116 cells

Compound: CC[C@@]1(O)C(=O)OCc2c1cc1n(c2=O)Cc2cc3ccccc3nc2-1 [canptothecine, camptothecin]
- cytotoxic effect (% subG1) of anti-cancer agent alone (HCT116 cells; HCT116 cells, without CBDC004): had a cytotoxic effect on HCT116 cells

Compound: COc1cc2c(c(OC)c1OC)-c1ccc(OC)c(=O)cc1[C@@H](NC(C)=O)CC2 [colchicine, reference compound]
- accumulation of cells in M phase by colchicine alone (Activated normal T cells [1]): caused an accumulation of cells in M phase
- accumulation of cells in G2/M phase by agent alone (Jurkat cells [5]; colchicine 5 ug/ml): induced an accumulation of cells in G2/M phase cells

Compound: bleomycin [reference compound]
- accumulation of cells in G2/M phase by agent alone (Jurkat cells [2]; Jurkat cells, bleomycin 40 μg/ml, 24 hrs): induced an accumulation of cells in cell cycle G2/M phase
- accumulation of cells at G2 phase by bleomycin alone (Jurkat cells [2]; leukemic T cells (Jurkat cells), FIG. 10b): caused accumulation of a major population of cells at G2 phase
- accumulation of cells at G2 phase by bleomycin alone (Activated normal T cells [3]; FIG. 10a): caused accumulation of a minor population of cells at G2 phase
